Assay results as given in US20140094424A1, “MICROBICIDAL COMPOSITIONS AND METHODS OF PRODUCTION USE THEREOF” (priority 2011, published 2014).

Legend:
[1] = Dissolution of antibiotic in Wash NEXT reagent; assay type: physicochemical; settings: 1% in Wash NEXT base pool
[2] = system: creatinine biosensor (creatinine amidohydrolase, creatinine amidinohydrolase and sarcosine oxidase); test: Effect on enzymatic activity of a creatinine biosensor (rate of O2% decrease); assay type: biochemical; settings: 40 mM propionate, FIG. 2
Method: In FIG. 1, the effects of various concentrations of gentamicin on the enzymatic activity of a creatinine biosensor (comprising the three enzymes creatinine amidohydrolase, creatinine amidinohydrolase and sarcosine oxidase) were determined. In FIG. 2, the effects of various concentrations of propionate on the enzymatic activity of a creatinine biosensor (comprising three enzymes) were determined.
In both instances, a decreasing rate of O2% is an indicator of enzyme activity; the faster the rate of O2% decrease, the higher enzymatic activity is.

| SMILES | dissolution in the Wash reagent [1] | effect on enzymatic activity of the three enzymes in the creatinine biosensor [2] |
| --- | --- | --- |
| CO[C@@H]1[C@@H](OC(N)=O)[C@@H](O)[C@H](Oc2ccc3c(O)c(NC(=O)c4ccc(O)c(CC=C(C)C)c4)c(=O)oc3c2C)OC1(C)C [novobiocin] | neither antibiotic completely dissolved in the Wash reagent |  |
| CCC(=O)O [propionate] |  | did not substantially affect the enzymatic activity |
